The record followed here is patent US20170326125A1, “MULTISUBSTITUTED AROMATIC COMPOUNDS AS INHIBITORS OF THROMBIN” (VERSEON CORPORATION, priority 2016, published 2017).

Structures are written as SMILES.

In the experiment the target is T1, Human thrombin (Homo sapiens, UniProt P00734).
T1 construct: purchased Haematologic Technologies Inc
Put plainly: Inhibition of the protease activity of thrombin (chromogenic substrate S-2238). Format: biochemical. Particulars: inhibition of the protease activity of thrombin; class symbols a/b/c. The procedure:
Compounds described herein can be assayed, by a variety of methods known in the art and described herein, for inhibition of biological activity, e.g., protease activity, of a variety of proteins, e.g., thrombin.
The thrombin activity reported herein (e.g., Table A) was obtained as follows. Human thrombin was obtained from Haematologic Technologies Inc. The chromogenic
Thrombin was assayed in buffer containing 0.05 M Tris (pH 7.4), 0.015 M NaCl and 0.01% PEG-8000. The final concentration of enzyme used was 3 nM thrombin. […] All assays were performed in 96-well microtiter plates at room temperature (RT). […] Inhibitor IC50 values were determined by adding test compound as ten point, three-fold serial dilutions in buffer solution, as known in the art. The plate was read at 10 minutes after substrate addition. The IC50 was calculated by plotting the percent (%) inhibition against compound concentration and fitting the data to a constrained four parameter sigmoidal curve, as known in the art.

A word on the IC50: it is the midpoint of a concentration-inhibition curve. A lower IC50 goes with higher potency. `COc1ccccc1C(=O)n1nc(-c2ccccn2)nc1NCc1cccc2ccccc12` [Cmpd 119, 1-[(2-methoxyphenyl)carbonyl]-N-(naphthalen-1-ylmethyl)-3-(pyridin-2-yl)-1H-1,2,4-triazol-5-amine]: the half-maximal inhibitory concentration (IC50) is greater than 1000 nM.

For `COc1ccccc1C(=O)n1nc(-c2ccccn2)nc1NCc1ccc2ccccc2c1` [Cmpd 120, 1-[(2-methoxyphenyl)carbonyl]-N-(naphthalen-2-ylmethyl)-3-(pyridin-2-yl)-1H-1,2,4-triazol-5-amine], the concentration for half-maximal inhibition (IC50) is greater than 1000 nM.

`O=C(c1ccc(Cl)cc1)n1nc(-c2ccccn2)nc1NCc1ccc(F)cc1` [Cmpd 121, 1-[(4-chlorophenyl)carbonyl]-N-[(4-fluorophenyl)methyl]-3-(pyridin-2-yl)-1H-1,2,4-triazol-5-amine] registered an IC50 of less than 100 nM.

`O=C(c1ccc(Cl)cc1)n1nc(-c2ccncc2)nc1NCc1ccc(F)cc1` [Cmpd 122, 1-[(4-chlorophenyl)carbonyl]-N-[(4-fluorophenyl)methyl]-3-(pyridin-4-yl)-1H-1,2,4-triazol-5-amine] came in with an IC50 of 100 to 1000 nM.

In the case of `COc1ccc(CNc2nc(-c3ccccn3)nn2C(=O)c2ccco2)cc1` [Cmpd 123, 1-[(furan-2-yl)carbonyl]-N-[(4-methoxyphenyl)methyl]-3-(pyridin-2-yl)-1H-1,2,4-triazol-5-amine], the IC50 is 100 to 1000 nM.

`COc1ccc(CNc2nc(-c3ccncc3)nn2C(=O)c2ccco2)cc1` [Cmpd 124, 1-[(furan-2-yl)carbonyl]-N-[(4-methoxyphenyl)methyl]-3-(pyridin-4-yl)-1H-1,2,4-triazol-5-amine] showed an IC50 of 100 to 1000 nM.

`COc1ccc(CNc2nc(-c3ccccn3)nn2C(=O)c2ccoc2)cc1` [Cmpd 125, 1-[(furan-3-yl)carbonyl]-N-[(4-methoxyphenyl)methyl]-3-(pyridin-2-yl)-1H-1,2,4-triazol-5-amine] showed an IC50 of 100 to 1000 nM.

`COc1ccc(CNc2nc(-c3cccnc3)nn2C(=O)c2ccoc2)cc1` [Cmpd 126, 1-[(furan-3-yl)carbonyl]-N-[(4-methoxyphenyl)methyl]-3-(pyridin-3-yl)-1H-1,2,4-triazol-5-amine] came in with an IC50 of 100 to 1000 nM.

Compound `COc1ccc(CNc2nc(-c3ccncc3)nn2C(=O)c2ccoc2)cc1` [Cmpd 127, 1-[(furan-3-yl)carbonyl]-N-[(4-methoxyphenyl)methyl]-3-(pyridin-4-yl)-1H-1,2,4-triazol-5-amine] returned an IC50 greater than 1000 nM.

Compound `CN(C)C(=O)c1cc(-c2ccccn2)nn1CCc1ccc(F)cc1` [Cmpd 128, 1-[2-(4-fluorophenyl)ethyl]-N,N-dimethyl-3-(pyridin-2-yl)-1H-pyrazole-5-carboxamide] displayed an IC50 greater than 1000 nM.

As to `CN(C)C(=O)c1cc(-c2ccccn2)n(CCc2ccc(F)cc2)n1` [Cmpd 129, 1-[2-(4-fluorophenyl)ethyl]-N,N-dimethyl-5-(pyridin-2-yl)-1H-pyrazole-3-carboxamide], the IC50 is greater than 1000 nM.

`CN(C(=O)c1cc(-c2ccccn2)nn1CCc1ccc(F)cc1)c1ccccc1` [Cmpd 130, 1-[2-(4-fluorophenyl)ethyl]-N-methyl-N-phenyl-3-(pyridin-2-yl)-1H-pyrazole-5-carboxamide]: the 50% inhibitory concentration (IC50) was greater than 1000 nM.

Compound `CN(C(=O)c1cc(-c2ccccn2)n(CCc2ccc(F)cc2)n1)c1ccccc1` [Cmpd 131, 1-[2-(4-fluorophenyl)ethyl]-N-methyl-N-phenyl-5-(pyridin-2-yl)-1H-pyrazole-3-carboxamide] registered an IC50 greater than 1000 nM.

Consider `CC(C)(C)C(=O)n1nc(-c2ccccc2F)cc1NCc1ccccc1` [Cmpd 133, 1-[5-(benzylamino)-3-(2-fluorophenyl)-1H-pyrazol-1-yl]-2,2-dimethylpropan-1-one], for which the IC50 fell in the range of 100 to 1000 nM.

Compound `CC(C)CC(=O)n1nc(-c2ccccc2F)cc1NCc1ccccc1` [Cmpd 134, 1-[5-(benzylamino)-3-(2-fluorophenyl)-1H-pyrazol-1-yl]-3-methylbutan-1-one] came in with an IC50 greater than 1000 nM.

In the case of `CCC(=O)n1nc(-c2cccc(F)c2)nc1NCc1ccccc1` [Cmpd 135, 1-[5-(benzylamino)-3-(3-fluorophenyl)-1H-1,2,4-triazol-1-yl]propan-1-one], the IC50 lay in the range of 100 to 1000 nM.

Turning to `CC(C)(C)C(=O)n1nc(-c2ccco2)nc1NCc1ccccc1` [Cmpd 136, 1-[5-(benzylamino)-3-(furan-2-yl)-1H-1,2,4-triazol-1-yl]-2,2-dimethylpropan-1-one], the half-inhibitory concentration (IC50) was less than 100 nM.

Compound `CC(C)(C)C(=O)n1nc(-c2ccccn2)nc1NCc1ccccc1` [Cmpd 137, 1-[5-(benzylamino)-3-(pyridin-2-yl)-1H-1,2,4-triazol-1-yl]-2,2-dimethylpropan-1-one] yielded an IC50 of less than 100 nM.

As for `CC(C)C(=O)n1nc(-c2ccccn2)nc1NCc1ccccc1` [Cmpd 138, 1-[5-(benzylamino)-3-(pyridin-2-yl)-1H-1,2,4-triazol-1-yl]-2-methylpropan-1-one], the IC50 was less than 100 nM.

`O=C(Cc1ccccc1)n1nc(-c2ccccn2)nc1NCc1ccccc1` [Cmpd 139, 1-[5-(benzylamino)-3-(pyridin-2-yl)-1H-1,2,4-triazol-1-yl]-2-phenylethan-1-one] returned an IC50 of less than 100 nM.

In the case of `CC(C)CC(=O)n1nc(-c2ccccn2)nc1NCc1ccccc1` [Cmpd 140, 1-[5-(benzylamino)-3-(pyridin-2-yl)-1H-1,2,4-triazol-1-yl]-3-methylbutan-1-one], the half-maximal inhibitory concentration (IC50) was less than 100 nM.

Compound `CCCC(=O)n1nc(-c2ccccn2)nc1NCc1ccccc1` [Cmpd 141, 1-[5-(benzylamino)-3-(pyridin-2-yl)-1H-1,2,4-triazol-1-yl]butan-1-one] gave an IC50 of less than 100 nM.

As for `CC(C)CC(=O)n1nc(-c2ccccn2)cc1NCc1ccccc1` [Cmpd 144, 1-[5-(benzylamino)-3-(pyridin-2-yl)-1H-pyrazol-1-yl]-3-methylbutan-1-one], the IC50 fell in the range of 100 to 1000 nM.

Compound `CC(C)(C)C(=O)n1nc(-c2ccncc2)nc1NCc1ccccc1` [Cmpd 145, 1-[5-(benzylamino)-3-(pyridin-4-yl)-1H-1,2,4-triazol-1-yl]-2,2-dimethylpropan-1-one] had an IC50 of less than 100 nM.

`CC(C)C(=O)n1nc(-c2ccncc2)nc1NCc1ccccc1` [Cmpd 146, 1-[5-(benzylamino)-3-(pyridin-4-yl)-1H-1,2,4-triazol-1-yl]-2-methylpropan-1-one] had an IC50 of less than 100 nM.

`O=C(Cc1ccccc1)n1nc(-c2ccncc2)nc1NCc1ccccc1` [Cmpd 147, 1-[5-(benzylamino)-3-(pyridin-4-yl)-1H-1,2,4-triazol-1-yl]-2-phenylethan-1-one] returned an IC50 of less than 100 nM.

For `CC(C)CC(=O)n1nc(-c2ccncc2)nc1NCc1ccccc1` [Cmpd 148, 1-[5-(benzylamino)-3-(pyridin-4-yl)-1H-1,2,4-triazol-1-yl]-3-methylbutan-1-one], the IC50 was less than 100 nM.

For the compound `O=C(CCc1ccccc1)n1nc(-c2ccncc2)nc1NCc1ccccc1` [Cmpd 149, 1-[5-(benzylamino)-3-(pyridin-4-yl)-1H-1,2,4-triazol-1-yl]-3-phenylpropan-1-one], the concentration for half-maximal inhibition (IC50) fell in the range of 100 to 1000 nM.

In turn, `CCCC(=O)n1nc(-c2ccncc2)nc1NCc1ccccc1` [Cmpd 150, 1-[5-(benzylamino)-3-(pyridin-4-yl)-1H-1,2,4-triazol-1-yl]butan-1-one] gave a half-maximal inhibitory concentration (IC50) of less than 100 nM.

For `CCC(=O)n1nc(-c2ccncc2)nc1NCc1ccccc1` [Cmpd 151, 1-[5-(benzylamino)-3-(pyridin-4-yl)-1H-1,2,4-triazol-1-yl]propan-1-one], the IC50 is less than 100 nM.
